# Experimental data reported in patent US9527896B2, “Stabilized p53 peptides and uses thereof” (DANA-FARBER CANCER INSTITUTE, INC., priority 2007, dated 2016).
# Like-named read-outs stand apart in the source and are kept apart here. Bridge positions count the residues as written; N and C are the ends. Square brackets hold non-standard residues; d marks the D form. Peptide text beside a SMILES is read from it. R8 = C=CCCCCCC[C@@](C)(N)C(=O)O; S5 = C=CCCC[C@](C)(N)C(=O)O; βAla = NCCC(=O)O
# Legend:
# SJSA-1 cells [1] = tested on: SJSA-1 cells
# Source text: After washing with PBS, the cells were fixed in 4% paraformaldehyde, washed with PBS, and treated with DAPI-containing (nuclear counterstain) Vectashield mounting medium (Vector), coverslipped and imaged by confocal microscopy (BioRad 1024 or Nikon E800).
# HDM2 = target: T1, HDM2 (Homo sapiens, UniProt Q00987); assay: Kd (nM)
# T1 construct: Co-Immunoprecipitation of FITC-SAH-p53 Peptides and Endogenous HDM2; endogenous in cells; host or cells: SJSA-1 osteosarcoma cells
# Source text: The patent's description of the figure: FIGS. 1A-1F Synthesis, Sequence, and Biochemical Analysis of SAH-p53 Peptides. FIG. 1A Non-natural amino acids were synthesized as described and cross-linked by ruthenium-catalyzed ring-closing olefin metathesis. […] Note: UAH-p53-8 is the “unstapled” form of SAH-p53-8.
# circular dichroism = conditions: water; pH 7.0; 20 °C; 10-50 uM
# [2] = Ex vivo protease stability in serum; assay type: in vitro ADME, mouse
# Procedure: FIG. 5 To determine whether SAH-p53 peptides have increased proteolytic stability, the wild type p5314-29 peptide and SAH-p53-4 were exposed to serum ex vivo.
# To assess the protease stability of the peptides, fluoresceinated peptides (2.5 μg) were incubated with fresh mouse serum (20 μL) at 37° C. for 0-24 hours. The level of intact fluoresceinated compound was determined by flash freezing the serum specimens in liquid nitrogen, lyophilization, extraction in 1:1 CH3CN:H2O containing 0.1% TFA, followed by HPLC-based quantitation using fluorescence detection at excitation/emission settings of 495/530 nm.
# HDM217-125 = target: T2, HDM217-125 (Homo sapiens, UniProt Q00987); assay: Fluorescence polarization binding assay, FITC-peptides and HDM217-125; conditions: FITC-labeled derivatives
# T2 construct: plasmid encoding HDM217-125 with an N-terminal hexahistidine tag; hexahistidine tag (N, cleaved yes); thrombin cleavage site (N, cleaved yes); made in house; host or cells: Escherichia coli BL21 (DE3)
# Procedure: (§1) FIG. 10 Fluorescence polarization binding assay of stapled peptides. Fluoresceinated peptides (5 nM) were incubated with recombinant HDM217-125 (25 pM-10 μM) at room temperature. Binding activity was measured by fluorescence polarization, and Kd values were obtained by […].
# as §1, with “A fluorescence” for “FIG. 10 Fluorescence”, “assay was used to assess binding” for “assay”, “peptides to HDM217-125.” for “stapled peptides.”, “KD” for “Kd”
# Purified HDM217-125 was prepared as follows. […]
# and a thrombin cleavage site were cultured in kanamycin- and chloramphenicol-containing Luria Broth and induced with 0.1 mM isopropyl β-D-thiogalactoside (IPTG). […] Purity of the protein was assessed by SDS-PAGE, FPLC and MALDI-TOF and determined to be >90%. […]
# Fluoresceinated compounds (LT=5-25 nM) were incubated with HDM217-125 in binding assay buffer (140 mM NaCl, 50 mM, Tris pH 8.0) at room temperature. Binding activity was measured by fluorescence polarization on a Perkin-Elmer LS50B luminescence spectrophotometer using a cuvette containing a stirbar or a Spectramax M5 Microplate Reader (Molecular Devices). Kd values were determined by nonlinear regression analysis of dose response curves using Prism software 4.0 Graphpad. […]
# SJSA-1 cells [3] = assay type: cell-based; conditions: 24 h
# Procedure: SJSA-1 osteosarcoma cells (4×10^5 cells per well) were incubated in 96-well plates and treated with p53 peptides in serum-free media for 4 hours, followed by serum replacement and additional incubation for 20 hours. Cell viability was assayed by addition of CellTiter-Glo™ bioluminescence reagent (Promega) and reading luminescence in a Spectramax M5 microplate reader (Molecular Devices). The extent of apoptosis was measured through the detection of caspase-3 activity by exposing the cells to a caspase-3-specific substrate (Oncogene). Fluorescence as a result of substrate cleavage was measured in a Spectramax M5 microplate reader (Molecular Devices).
# SJSA-1 cells [4] = assay type: cell-based; conditions: 24 h; remark: listed apart in the source
# Procedure: The cells were then exposed to a caspase-3 specific substrate (Ac-DEVD-AMC ('DEVD' disclosed as SEQ ID NO: 7)). Fluorescence as a result of cleavage was measured in a microplate reader. To determine the specificity of the activity, certain peptides were incubated alongside DEVD-CHO ('DEVD' disclosed as SEQ ID NO: 7), a substrate known to inhibit caspase-3 specifically. The effect of various peptides on caspase-3 activation was examined as follows. […] The cells were then exposed to a caspase-3 specific substrate. Fluorescence as a result of cleavage was measured in a microplate reader. To determine the specificity of the activity, certain peptides were incubated alongside DEVD-CHO ('DEVD' disclosed as SEQ ID NO: 7), a substrate known to inhibit caspase-3 specifically. […] Cell viability was assayed by addition of CellTiter-GloTM bioluminescence reagent (Promega) and reading luminescence in a Spectramax M5 microplate reader (Molecular Devices). The extent of apoptosis was measured through the detection of caspase-3 activity by exposing the cells to a caspase-3-specific substrate (Oncogene). Fluorescence as a result of substrate cleavage was measured in a Spectramax M5 microplate reader (Molecular Devices).
# T1 sequence (Q00987 whole entry, looked up): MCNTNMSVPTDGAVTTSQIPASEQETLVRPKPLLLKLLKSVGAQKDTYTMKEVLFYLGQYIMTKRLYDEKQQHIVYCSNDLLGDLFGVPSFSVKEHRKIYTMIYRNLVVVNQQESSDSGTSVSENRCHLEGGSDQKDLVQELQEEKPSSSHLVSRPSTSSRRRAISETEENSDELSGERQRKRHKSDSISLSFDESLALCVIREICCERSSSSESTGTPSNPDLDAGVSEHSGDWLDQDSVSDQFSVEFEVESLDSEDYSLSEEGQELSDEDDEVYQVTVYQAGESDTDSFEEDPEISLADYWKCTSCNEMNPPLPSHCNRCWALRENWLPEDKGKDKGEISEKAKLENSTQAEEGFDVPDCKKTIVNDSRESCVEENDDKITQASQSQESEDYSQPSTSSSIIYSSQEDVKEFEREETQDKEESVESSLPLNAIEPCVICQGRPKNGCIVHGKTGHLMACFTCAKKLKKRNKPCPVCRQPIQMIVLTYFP
# T2 sequence (Q00987 17-125 limits assumed): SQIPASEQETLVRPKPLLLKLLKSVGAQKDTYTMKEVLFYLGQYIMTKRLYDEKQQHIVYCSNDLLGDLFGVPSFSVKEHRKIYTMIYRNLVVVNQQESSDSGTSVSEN
SMILES,Kd (HDM2) [nM],helicity (circular dichroism) [%],further results
CC(=O)NCCC(=O)N[C@@H](CCC(N)=O)C(=O)N[C@@H](CO)C(=O)N[C@@H](CCC(N)=O)C(=O)N[C@@H](CCC(N)=O)C(=O)N[C@H](C(=O)N[C@@H](C)C(=O)N[C@]1(C)CCCCCCC=CCCC[C@@](C)(C(=O)N[C@@H](CCC(N)=O)C(=O)N[C@@H](CC(N)=O)C(N)=O)NC(=O)[C@H](CC(C)C)NC(=O)[C@H](CC(C)C)NC(=O)[C@H](CCCNC(=N)N)NC(=O)[C@H](Cc2c[nH]c3ccccc23)NC(=O)[C@H](CC(C)C)NC(=O)[C@H](CC(N)=O)NC1=O)[C@@H](C)O [SAH-p53-8F19A] (Ac-[βAla]QSQQTA[R8]NLWRLL[S5]QN-NH2; staple 8-15; N-terminus and C-terminus assumed),> 4000,39,cellular fluorescence (SJSA-1 cells [1]): Cellular fluorescence was observed
CC(=O)NCCC(=O)N[C@@H](CC(C)C)C(=O)N[C@@H](CO)C(=O)N[C@@H](CCC(N)=O)C(=O)N[C@@H](CCC(=O)O)C(=O)N[C@H](C(=O)N[C@@H](Cc1ccccc1)C(=O)N[C@@H](CO)C(=O)N[C@@H](CC(=O)O)C(=O)N[C@@H](CC(C)C)C(=O)N[C@@H](Cc1c[nH]c2ccccc12)C(=O)N[C@@H](CCCCN)C(=O)N[C@@H](CC(C)C)C(=O)N[C@@H](CC(C)C)C(=O)N1CCC[C@H]1C(=O)N[C@@H](CCC(=O)O)C(=O)N[C@@H](CC(N)=O)C(N)=O)[C@@H](C)O,–,11,–
CC(=O)NCCC(=O)N[C@@H](CC(C)C)C(=O)N[C@@H](CO)C(=O)N[C@@H](CCC(N)=O)C(=O)N[C@@H](CCC(=O)O)C(=O)N[C@H](C(=O)N[C@@H](Cc1ccccc1)C(=O)N[C@]1(C)CCCCCCC=CCCC[C@@](C)(C(=O)N[C@@H](CCC(=O)O)C(=O)N[C@@H](CC(N)=O)C(N)=O)NC(=O)[C@H](CC(C)C)NC(=O)[C@H](CC(C)C)NC(=O)[C@H](CCCCN)NC(=O)[C@H](Cc2c[nH]c3ccccc23)NC(=O)[C@H](CC(C)C)NC(=O)[C@H](CC(=O)O)NC1=O)[C@@H](C)O [SAH-p53-4],0.92 ± 0.11,59,proteolytic stability [2]: improved proteolytic stability; serum half-life (t1/2) compared with unmodified wild type peptide ([2]; exposed to serum ex vivo): almost four times longer; HDM2 binding affinity (HDM217-125): subnanomolar
CC(=O)NCCC(=O)N[C@@H](CC(C)C)C(=O)N[C@@H](CO)C(=O)N[C@@H](CCC(N)=O)C(=O)N[C@@H](CCC(=O)O)C(=O)N[C@H](C(=O)N[C@@H](Cc1ccccc1)C(=O)N[C@@H](CO)C(=O)N[C@@H](CC(=O)O)C(=O)N[C@]1(C)CCCCCCC=CCCC[C@@](C)(C(N)=O)NC(=O)[C@H](CCC(=O)O)NC(=O)[C@@H]2CCCN2C(=O)[C@H](CC(C)C)NC(=O)[C@H](CC(C)C)NC(=O)[C@H](CCCCN)NC(=O)[C@H](Cc2c[nH]c3ccccc23)NC1=O)[C@@H](C)O [SAH-p53-1] (Ac-[βAla]LSQETFSD[R8]WKLLPE[S5]-NH2; staple 10-17),100 ± 8,25,–
CC(=O)NCCC(=O)N[C@@H](CC(C)C)C(=O)N[C@@H](CO)C(=O)N[C@@H](CCC(N)=O)C(=O)N[C@@H](CCC(=O)O)C(=O)N[C@H](C(=O)N[C@@H](Cc1ccccc1)C(=O)N[C@]1(C)CCCCCCC=CCCC[C@@](C)(C(=O)N[C@@H](CCC(N)=O)C(=O)N[C@@H](CC(N)=O)C(N)=O)NC(=O)[C@H](CC(C)C)NC(=O)[C@H](CC(C)C)NC(=O)[C@H](CCCCN)NC(=O)[C@H](Cc2c[nH]c3ccccc23)NC(=O)[C@H](CC(C)C)NC(=O)[C@H](CC(N)=O)NC1=O)[C@@H](C)O [SAH-p53-5] (Ac-[βAla]LSQETF[R8]NLWKLL[S5]QN-NH2; staple 8-15),0.8 ± 0.05,20,–
CC(=O)NCCC(=O)N[C@@H](CCC(N)=O)C(=O)N[C@@H](CO)C(=O)N[C@@H](CCC(N)=O)C(=O)N[C@@H](CCC(N)=O)C(=O)N[C@H](C(=O)N[C@@H](Cc1ccccc1)C(=O)N[C@]1(C)CCCCCCC=CCCC[C@@](C)(C(=O)N[C@@H](CCC(N)=O)C(=O)N[C@@H](CC(N)=O)C(N)=O)NC(=O)[C@H](CC(C)C)NC(=O)[C@H](CC(C)C)NC(=O)[C@H](CCCNC(=N)N)NC(=O)[C@H](Cc2c[nH]c3ccccc23)NC(=O)[C@H](CC(C)C)NC(=O)[C@H](CC(N)=O)NC1=O)[C@@H](C)O [SAH-p53-8],55 ± 11,85,EC50 (SJSA-1 cells [3]): 8.8 µM; EC50 (SJSA-1 cells [4]): 5.8 µM; cellular fluorescence (SJSA-1 cells [1]): Cellular fluorescence was observed
"C=CCCCCCC[C@@](C)(NC(=O)[C@H](Cc1ccccc1)NC(=O)[C@@H](NC(=O)[C@H](CCC(N)=O)NC(=O)[C@H](CCC(N)=O)NC(=O)[C@H](CO)NC(=O)[C@H](CCC(N)=O)NC(=O)CCNC(C)=O)[C@@H](C)O)C(=O)N[C@@H](CC(N)=O)C(=O)N[C@@H](CC(C)C)C(=O)N[C@@H](Cc1c[nH]c2ccccc12)C(=O)N[C@@H](CCCNC(=N)N)C(=O)N[C@@H](CC(C)C)C(=O)N[C@@H](CC(C)C)C(=O)N[C@@](C)(CCCC=C)C(=O)N[C@@H](CCC(N)=O)C(=O)N[C@@H](CC(N)=O)C(N)=O [UAH-p53-8, Ac-QSQQTF*NLWRKK*QN-NH2]",–,36,–
CC(=O)NCCC(=O)N[C@@H](CC(C)C)C(=O)N[C@@H](CO)C(=O)N[C@@H](CCC(N)=O)C(=O)N[C@@H](CCC(=O)O)C(=O)N[C@]1(C)CCCCCCC=CCCC[C@@](C)(C(=O)N[C@@H](CC(C)C)C(=O)N2CCC[C@H]2C(=O)N[C@@H](CCC(=O)O)C(=O)N[C@@H](CC(N)=O)C(N)=O)NC(=O)[C@H](CCCCN)NC(=O)[C@H](Cc2c[nH]c3ccccc23)NC(=O)[C@H](CC(C)C)NC(=O)[C@H](CC(=O)O)NC(=O)[C@H](CO)NC(=O)[C@H](Cc2ccccc2)NC1=O (Ac-[βAla]LSQE[R8]FSDLWK[S5]LPEN-NH2; staple 6-13),–,10,–
CC(=O)NCCC(=O)N[C@@H](CCC(N)=O)C(=O)N[C@@H](CO)C(=O)N[C@@H](CCC(N)=O)C(=O)N[C@@H](CCC(N)=O)C(=O)N[C@H](C(=O)N[C@@H](Cc1ccccc1)C(=O)N[C@]1(C)CCCCCCC=CCCC[C@@](C)(C(=O)N[C@@H](CCC(N)=O)C(=O)N[C@@H](CC(N)=O)C(N)=O)NC(=O)[C@H](CC(C)C)NC(=O)[C@H](CC(C)C)NC(=O)[C@H](CCCCN)NC(=O)[C@H](Cc2c[nH]c3ccccc23)NC(=O)[C@H](CC(C)C)NC(=O)[C@H](CC(N)=O)NC1=O)[C@@H](C)O [SAH-p53-7] (Ac-[βAla]QSQQTF[R8]NLWKLL[S5]QN-NH2; staple 8-15),50 ± 10,36,–
CC(=O)NCCC(=O)N[C@@H](CC(C)C)C(=O)N[C@@H](CO)C(=O)N[C@@H](CCC(N)=O)C(=O)N[C@]1(C)CCCCCCC=CCCC[C@@](C)(C(=O)N[C@@H](CC(C)C)C(=O)N[C@@H](CC(C)C)C(=O)N2CCC[C@H]2C(=O)N[C@@H](CCC(=O)O)C(=O)N[C@@H](CC(N)=O)C(N)=O)NC(=O)[C@H](Cc2c[nH]c3ccccc23)NC(=O)[C@H](CC(C)C)NC(=O)[C@H](CC(=O)O)NC(=O)[C@H](CO)NC(=O)[C@H](Cc2ccccc2)NC(=O)[C@H]([C@@H](C)O)NC1=O (Ac-[βAla]LSQ[R8]TFSDLW[S5]LLPEN-NH2; staple 5-12),–,12,–
